Assay results published in ChEMBL document CHEMBL1201862, “PubChem BioAssay data set” (2004).
Calls of active or inactive are those of the source.

Key:
[1] = target: T1, Adenosylmethionine-8-amino-7-oxononanoate aminotransferase (Mycobacterium tuberculosis, UniProt P9WQ81); experiment: Mycobacterium tuberculosis BioA enzyme inhibitor Measured in Biochemical System Using Plate Reader - 2163-02_Inhibitor_Dose_CherryPick_Activity.; assay type: functional, Mycobacterium tuberculosis UT205
T1 sequence (P9WQ81 whole entry): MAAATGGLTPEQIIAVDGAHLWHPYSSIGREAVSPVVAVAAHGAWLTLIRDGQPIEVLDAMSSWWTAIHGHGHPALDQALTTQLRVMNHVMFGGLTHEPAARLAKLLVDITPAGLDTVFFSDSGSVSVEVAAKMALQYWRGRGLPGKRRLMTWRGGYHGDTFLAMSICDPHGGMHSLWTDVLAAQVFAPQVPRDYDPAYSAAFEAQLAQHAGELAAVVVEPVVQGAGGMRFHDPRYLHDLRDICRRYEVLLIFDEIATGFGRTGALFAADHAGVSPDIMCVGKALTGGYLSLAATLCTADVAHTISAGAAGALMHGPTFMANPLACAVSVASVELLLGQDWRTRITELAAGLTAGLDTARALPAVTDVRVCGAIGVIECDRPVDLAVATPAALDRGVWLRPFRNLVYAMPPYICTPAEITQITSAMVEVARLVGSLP

[2] = inhibitors of clade B AD8 Env fusion, dose response, cell-based, cherry-pick (AID 652062); assay type: functional;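 also: luciferase signal from cell-cell fusion driven by HIV-1 clade B AD8 Env; potency is for inhibitors of fusion seen as a drop in luminescence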
[3] = inhibitors of HIV Env-driven cell fusion, dose response, cherry-pick (AID 652057); assay type: functional, cell-based
[4] = off-target signal loss in HeLa-CEM21 co-culture – HeLa F-luc CTL cells, cherry-picked, counter-screen for HIV-1 Env fusion inhibitor project, dose response (AID 652040); assay type: functional, cell-based;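 also: potency for signal decrease marking cytotoxic or nonspecific inhibition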
HEK293 [5] = experiment: cells; conditions: Homo sapiens
[6] = ZM109 Env clade C HIV-1 fusion inhibitors, dose response, HeLa effector, CEM target cells, luciferase, cherry-pick (AID 652058); assay type: functional, cell-based
HEK293 [7] = experiment: cells; conditions: Homo sapiens; remark: listed apart in the source
[8] = target: T2, Mitochondrial peptide methionine sulfoxide reductase (Bos taurus, UniProt P54149); assay type: functional;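 also: absorbance read-out, biochemical high-throughput dose-response screen for MsrA inhibitors, confirmatory; recombinant bovine MsrA coupled to E. coli TrxB with NADPH and selenocystamine; potency is for inhibitors of MsrA activity on DMSO substrate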
T2 sequence (P54149 whole entry): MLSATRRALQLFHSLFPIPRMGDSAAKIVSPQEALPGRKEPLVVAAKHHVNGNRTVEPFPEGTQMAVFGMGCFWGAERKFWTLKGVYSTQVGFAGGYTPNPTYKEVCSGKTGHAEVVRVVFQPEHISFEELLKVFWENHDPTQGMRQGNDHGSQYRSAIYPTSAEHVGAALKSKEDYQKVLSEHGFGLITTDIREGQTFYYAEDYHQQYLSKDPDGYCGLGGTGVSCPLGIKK

[9] = target: T3, Orexin/Hypocretin receptor type 1 (Homo sapiens, UniProt O43613); experiment: Fluorescence-based cell-based high throughput dose response assay for antagonists of the orexin 1 receptor (OX1R; HCRTR1). [Related pubchem assays (depositor defined):AID434989, AID435008, AID463079, AID485270, AID492963, AID492964, AID492965, AID493232, AID504717, AID504718]; assay type: functional
T3 sequence (O43613 whole entry): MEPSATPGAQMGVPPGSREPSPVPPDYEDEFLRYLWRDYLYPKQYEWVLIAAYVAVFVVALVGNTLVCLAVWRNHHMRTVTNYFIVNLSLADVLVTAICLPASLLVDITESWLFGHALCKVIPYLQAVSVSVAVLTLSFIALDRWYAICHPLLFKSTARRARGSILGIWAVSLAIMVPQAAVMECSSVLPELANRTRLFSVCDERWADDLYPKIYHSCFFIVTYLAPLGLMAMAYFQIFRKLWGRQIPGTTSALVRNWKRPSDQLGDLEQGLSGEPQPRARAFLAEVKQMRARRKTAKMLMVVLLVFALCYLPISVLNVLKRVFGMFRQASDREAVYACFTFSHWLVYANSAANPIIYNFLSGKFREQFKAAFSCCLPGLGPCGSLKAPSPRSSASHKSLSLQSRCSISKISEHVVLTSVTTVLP

[10] = Counterscreen for antagonists of the orexin 1 receptor (OX1R; HCRTR1): Fluorescence-based cell-based high throughput dose response assay to identify antagonists of the parental CHO cell line. [Related pubchem assays (depositor defined):AID434989, AID435008, AID463079, AID485270, AID492963, AID492964, AID492965, AID493232, AID504699, AID504701]; assay type: functional
[11] = target: T3, Orexin/Hypocretin receptor type 1; experiment: Homogeneous Time Resolved Fluorescence (HTRF)-based cell-based high throughput dose response assay for antagonists of the orexin 1 receptor (OX1R; HCRTR1). [Related pubchem assays (depositor defined):AID434989, AID435008, AID463079, AID485270, AID492963, AID492964, AID492965, AID493232, AID504717, AID504718]; assay type: functional
CHO-K1 = experiment: Counterscreen for antagonists of the orexin 1 receptor (OX1R; HCRTR1): Homogeneous time resolved fluorescence (HTRF)-based cell-based dose response assay to identify antagonists of the parental CHO-K1 cell line. [Related pubchem assays (depositor defined):AID434989, AID435008, AID463079, AID485270, AID492963, AID492964, AID492965, AID493232, AID504699, AID504701]; assay type: functional; conditions: Cricetulus griseus
[12] = target: 72 kDa type IV collagenase (Homo sapiens, UniProt P08253); experiment: Dose Response validation of uHTS RPN11 inhibitor hits using a MMP-2 Fluorescence assay.; assay type: functional
Chain of 72 kDa type IV collagenase (P08253 whole entry): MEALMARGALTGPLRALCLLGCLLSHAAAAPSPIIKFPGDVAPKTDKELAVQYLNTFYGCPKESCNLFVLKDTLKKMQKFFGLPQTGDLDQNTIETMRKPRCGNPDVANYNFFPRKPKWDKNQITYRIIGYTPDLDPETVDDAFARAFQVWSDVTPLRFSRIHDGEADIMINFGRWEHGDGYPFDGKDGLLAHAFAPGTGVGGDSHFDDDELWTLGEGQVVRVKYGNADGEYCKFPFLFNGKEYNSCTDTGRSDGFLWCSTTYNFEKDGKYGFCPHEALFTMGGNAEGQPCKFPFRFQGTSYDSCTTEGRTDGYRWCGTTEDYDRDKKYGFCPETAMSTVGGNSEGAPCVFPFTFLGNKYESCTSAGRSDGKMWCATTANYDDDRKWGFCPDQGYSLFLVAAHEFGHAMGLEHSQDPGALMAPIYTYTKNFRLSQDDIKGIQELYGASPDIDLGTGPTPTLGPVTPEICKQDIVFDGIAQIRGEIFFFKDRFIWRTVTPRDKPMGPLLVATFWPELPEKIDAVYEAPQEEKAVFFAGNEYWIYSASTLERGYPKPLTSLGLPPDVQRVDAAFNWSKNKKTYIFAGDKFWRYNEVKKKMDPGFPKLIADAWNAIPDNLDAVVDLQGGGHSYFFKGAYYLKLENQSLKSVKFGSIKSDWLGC

[13] = target: 26S proteasome non-ATPase regulatory subunit 14 (Homo sapiens, UniProt O00487); experiment: inhibition of proteasome subunit RPN11 – biochemical, fluorescence polarization, uHTS hits, confirmation (AID 602368); assay type: functional
Chain of 26S proteasome non-ATPase regulatory subunit 14 (O00487 whole entry): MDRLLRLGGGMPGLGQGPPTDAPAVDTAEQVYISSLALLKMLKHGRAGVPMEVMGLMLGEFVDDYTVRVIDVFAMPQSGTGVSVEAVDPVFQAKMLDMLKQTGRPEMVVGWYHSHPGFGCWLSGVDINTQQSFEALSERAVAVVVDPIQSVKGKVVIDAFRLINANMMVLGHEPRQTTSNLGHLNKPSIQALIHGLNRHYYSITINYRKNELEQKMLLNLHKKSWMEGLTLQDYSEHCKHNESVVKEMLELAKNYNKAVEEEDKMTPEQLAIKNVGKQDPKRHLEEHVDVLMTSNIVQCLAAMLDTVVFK

Prothrombin = Prothrombin (Bos taurus, UniProt P00735); experiment: thrombin inhibition, dose response, biochemical, fluorescence polarization, uHTS hits (AID 602369); assay type: functional
[14] = control 3'UTR Renilla luciferase suppression, dose response, counter-screen for Shn3 inhibitor project, cell-based, Clone20-Shn3RL, cherry-picked (AID 624133); assay type: functional
[15] = Shn3 3'UTR reporter inhibitors, dose response, cell-based, Clone20 osteoblasts, firefly luciferase, cherry-picked (AID 624132); assay type: functional;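 also: firefly luciferase luminescence from reporter carrying the Shn3 3'UTR in osteoblasts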
[16] = microbe, parasite or virus in culture; assay type: functional; conditions: Mycobacterium tuberculosis
CHO = experiment: cytotoxicity in TLR9-MyD88 CHO cells, dose response, cytotoxicity control for TLR9-MyD88 binding inhibitor project, cell-based, luminescence (AID 588339); assay type: functional, hamster; conditions: Cricetulus griseus;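 also: CHO cells stably coexpressing TLR9 and MyD88 fusions from primary screen; compound exposure lasted 48 hours before viability readout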
Beta Lactamase = Beta Lactamase (Pseudomonas aeruginosa, UniProt Q932Y6); experiment: beta-lactamase reporter inhibitor potency, dose response, artefact control for TLR9-MyD88 binding inhibitor project, BLA reporter cells, FRET fluorescence (AID 588341); assay type: cell-based;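 also: cell based assay in CHO-K1 cells stably expressing beta-lactamase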
Chain of Beta Lactamase (Q932Y6 whole entry): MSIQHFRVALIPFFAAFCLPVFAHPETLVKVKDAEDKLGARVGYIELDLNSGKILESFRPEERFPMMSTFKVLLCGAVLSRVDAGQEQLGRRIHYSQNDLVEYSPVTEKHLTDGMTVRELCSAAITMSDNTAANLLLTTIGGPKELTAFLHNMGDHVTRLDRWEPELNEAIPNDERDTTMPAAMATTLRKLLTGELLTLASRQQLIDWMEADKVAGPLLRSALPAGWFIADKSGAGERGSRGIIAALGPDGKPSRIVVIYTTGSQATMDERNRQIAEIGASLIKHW

[17] = HepG2 cell cytotoxicity, dose response, cytotoxicity control for Shn3 inhibitor project, CellTiter-Glo, cherry-picked (AID 624134); assay type: functional, cell-based
Cytochrome P450 2D6 = Cytochrome P450 2D6 (Homo sapiens, UniProt P10635);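 also: CYP2D6 member of a cytochrome P450 panel assay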
Chain of Cytochrome P450 2D6 (P10635 whole entry): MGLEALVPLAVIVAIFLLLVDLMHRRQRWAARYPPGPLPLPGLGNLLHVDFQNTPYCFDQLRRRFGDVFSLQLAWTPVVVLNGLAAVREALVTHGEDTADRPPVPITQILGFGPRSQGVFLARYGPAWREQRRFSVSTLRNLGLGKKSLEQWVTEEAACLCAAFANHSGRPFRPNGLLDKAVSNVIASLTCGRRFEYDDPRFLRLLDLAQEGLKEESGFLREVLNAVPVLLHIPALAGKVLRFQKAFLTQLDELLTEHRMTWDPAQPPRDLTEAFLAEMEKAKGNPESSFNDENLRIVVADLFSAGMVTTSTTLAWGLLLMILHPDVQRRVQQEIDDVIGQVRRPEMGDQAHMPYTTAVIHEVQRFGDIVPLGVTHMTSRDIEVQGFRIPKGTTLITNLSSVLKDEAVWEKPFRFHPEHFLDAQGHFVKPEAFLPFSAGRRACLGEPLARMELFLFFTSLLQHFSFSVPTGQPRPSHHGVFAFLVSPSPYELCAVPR

Cytochrome P450 2C9 = Cytochrome P450 2C9 (Homo sapiens, UniProt P11712)
Chain of Cytochrome P450 2C9 (P11712 whole entry): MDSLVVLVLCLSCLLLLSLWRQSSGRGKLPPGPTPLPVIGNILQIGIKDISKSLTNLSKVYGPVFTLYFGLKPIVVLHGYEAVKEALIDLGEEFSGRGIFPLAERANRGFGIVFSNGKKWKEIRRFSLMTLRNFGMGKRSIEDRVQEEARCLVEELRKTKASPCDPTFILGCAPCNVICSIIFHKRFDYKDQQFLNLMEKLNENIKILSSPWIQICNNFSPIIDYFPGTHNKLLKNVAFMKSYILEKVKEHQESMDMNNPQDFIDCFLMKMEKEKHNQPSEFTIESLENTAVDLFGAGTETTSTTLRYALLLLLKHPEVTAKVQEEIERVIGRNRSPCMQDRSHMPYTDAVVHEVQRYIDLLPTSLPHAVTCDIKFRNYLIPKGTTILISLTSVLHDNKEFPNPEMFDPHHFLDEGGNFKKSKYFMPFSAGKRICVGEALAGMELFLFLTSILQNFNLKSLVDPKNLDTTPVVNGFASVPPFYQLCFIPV

Vero = experiment: cells; assay type: functional; conditions: Chlorocebus sabaeus
Cytochrome P450 1A2 = target: T4, Cytochrome P450 1A2 (Homo sapiens, UniProt P05177);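 also: PubChem cytochrome P450 panel assay, CYP1A2 panel member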
T4 sequence (P05177 whole entry): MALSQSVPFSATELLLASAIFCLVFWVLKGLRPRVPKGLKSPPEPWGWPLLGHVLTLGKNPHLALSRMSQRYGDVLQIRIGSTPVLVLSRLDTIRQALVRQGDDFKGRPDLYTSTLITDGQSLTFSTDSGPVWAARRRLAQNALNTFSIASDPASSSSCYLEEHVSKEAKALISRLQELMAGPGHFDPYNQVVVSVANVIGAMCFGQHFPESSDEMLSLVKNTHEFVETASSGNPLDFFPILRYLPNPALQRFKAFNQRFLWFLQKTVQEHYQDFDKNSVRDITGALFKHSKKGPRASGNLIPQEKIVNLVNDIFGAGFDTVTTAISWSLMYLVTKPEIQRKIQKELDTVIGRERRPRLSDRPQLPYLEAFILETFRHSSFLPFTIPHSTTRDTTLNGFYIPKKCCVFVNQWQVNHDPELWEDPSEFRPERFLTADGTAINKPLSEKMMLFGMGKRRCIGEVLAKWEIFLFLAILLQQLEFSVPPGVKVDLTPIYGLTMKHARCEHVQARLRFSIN

[18] = intracellular Trypanosoma cruzi inhibitors in host cells – cell-based, plate reader, cherry-pick samples, set 3, dose response (AID 651818); assay type: functional;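 also: compounds incubated with infected cells for about four days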
[19] = Luminescence Cell-Based Dose Retest to Confirm Inhibitors of Cancer Stem Cells. [Related pubchem assays (depositor defined):AID2717, AID2721]; assay type: functional; conditions: Homo sapiens
Paired box protein Pax-8 = Paired box protein Pax-8 (Homo sapiens, UniProt Q06710); experiment: inhibitors of PAX8-driven TPO luciferase reporter, dose response, RMG-I cells, cherry-pick (AID 687027); assay type: functional, cell-based;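 also: luciferase reporter driven by Pax8 target thyroperoxidase promoter measured by SteadyGlo luminescence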
Chain of Paired box protein Pax-8 (Q06710 whole entry): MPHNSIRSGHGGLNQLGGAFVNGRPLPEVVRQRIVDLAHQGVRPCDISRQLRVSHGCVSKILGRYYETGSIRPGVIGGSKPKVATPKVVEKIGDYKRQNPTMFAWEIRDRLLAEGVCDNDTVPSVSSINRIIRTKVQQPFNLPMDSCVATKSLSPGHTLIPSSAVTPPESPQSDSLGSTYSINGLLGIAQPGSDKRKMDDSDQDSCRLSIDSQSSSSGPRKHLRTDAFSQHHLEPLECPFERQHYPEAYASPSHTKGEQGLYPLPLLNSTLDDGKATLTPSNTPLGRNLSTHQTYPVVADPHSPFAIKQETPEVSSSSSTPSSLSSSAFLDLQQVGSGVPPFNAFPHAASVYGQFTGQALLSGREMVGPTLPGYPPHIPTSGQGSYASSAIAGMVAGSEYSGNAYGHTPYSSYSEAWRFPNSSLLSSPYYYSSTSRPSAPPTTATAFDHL

Caspase-6 = target: T5, Caspase-6 (Homo sapiens, UniProt P55212); experiment: human caspase-6 inhibitors, dose response, biochemical, VEID-R110 fluorescence, cherry-pick (AID 720632)
T5 sequence (P55212 whole entry): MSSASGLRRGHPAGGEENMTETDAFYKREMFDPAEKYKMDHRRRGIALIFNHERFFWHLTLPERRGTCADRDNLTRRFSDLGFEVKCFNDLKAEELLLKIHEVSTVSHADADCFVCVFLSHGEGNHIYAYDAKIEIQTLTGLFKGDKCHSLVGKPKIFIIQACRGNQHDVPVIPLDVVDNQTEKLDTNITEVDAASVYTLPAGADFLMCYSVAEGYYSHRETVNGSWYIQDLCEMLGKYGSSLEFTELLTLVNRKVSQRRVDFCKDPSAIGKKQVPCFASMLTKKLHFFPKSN

## C=C(C)n1c(=O)n(Cc2ccccc2C)c2ccccc21
[1]
  AC50: 1.32 µM (active)

## COC(=O)C1C(=O)C=C(Nc2ccc(F)cc2)CC1c1ccc(OC)cc1 (stereo not drawn)
[1]
  AC50: 1.01 µM (active)

## COCCCN(C(=S)NC(=O)C12CC3CC(CC(C3)C1)C2)c1c(N)n(Cc2ccccc2)c(=O)[nH]c1=O
[2]
  AC50: 4.29 µM (active)
[3]
  AC50: 1.97 µM (active)
[4]
  AC50: 1.92 µM (active)
HEK293 [5]
  EC50: > 59.7 µM (inactive)
[6]
  AC50: 2.64 µM (active)
HEK293 [7]
  EC50: > 59.7 µM (inactive)

## O=C(C1=C(O)C(=O)N(CCCn2ccnc2)C1c1cccc(Br)c1)c1ccco1 (stereo not drawn)
[8]
  IC50: 155 µM (inactive)

## O=C(NCCN1C(=O)S/C(=C\c2ccccc2)C1=O)c1cc(S(=O)(=O)N2CCOCC2)c(Cl)cc1Cl
[9]
  IC50: 10.5 µM (inactive)
[10]
  IC50: 21.3 µM (inactive)
[11]
  IC50: 20.3 µM (inactive)
CHO-K1
  IC50: > 66.2 µM (inactive)

## NS(=O)(=O)c1ccc(N/C=C\C(=O)c2ccc3ccccc3c2)cc1
[12]
  IC50: > 100 µM (inactive)
[13]
  IC50: 28.6 µM (active)
Prothrombin
  IC50: 56.5 µM (active)

## Nc1cc(Cl)c2nonc2c1[N+](=O)[O-]
[14]
  AC50: 1.37 µM (active)
[15]
  AC50: 5.37 µM (active)
HEK293 [5]
  EC50: > 59.7 µM (inactive)
[16]
  CC50: 12 µM (active)
CHO
  IC50: 2.12 µM (active)
Beta Lactamase
  IC50: > 49.7 µM (inactive)
HEK293 [7]
  EC50: > 59.7 µM (inactive)
[17]
  AC50: 29.6 µM (active)

## CN(C)C=O.CN(C)c1ccc(/C=C/c2nc3ccccc3c(=O)n2-c2ccc(C(=O)O)cc2)cc1
CHO
  IC50: > 49.7 µM (inactive)
Beta Lactamase
  IC50: 9 µM (active)

## CC(C)Cc1nnc(NC(=O)Cc2cccs2)s1
[12]
  IC50: > 100 µM (inactive)
[13]
  IC50: 20.6 µM (active)
Prothrombin
  IC50: 44.7 µM (active)

## S=C1SCN(Cc2ccccn2)CN1Cc1ccco1
Cytochrome P450 2D6
  AC50: 17.8 µM (inconclusive)
Cytochrome P450 2C9
  AC50: 14.1 µM (inconclusive)
Vero
  CC50: 24 µM (active)
Cytochrome P450 1A2
  AC50: 11.2 µM (inconclusive)

## CCN(CC)S(=O)(=O)c1ccc(NC(=O)c2ccc(Cl)nc2)cc1
[1]
  AC50: 6.89 µM (active)

## C[C@@H]1CN([C@@H](C)CO)C(=O)Cc2cc(NC(=O)Nc3ccc(C(F)(F)F)cc3)ccc2O[C@@H]1CN(C)S(=O)(=O)c1ccc(Cl)cc1
[18]
  AC50: 3.51 µM (active)
[19]
  AC50: 1.28 µM (active)
Paired box protein Pax-8
  AC50: 10.3 µM (active)

## C=CCC[C@@H](Cc1ccc(F)cc1)C(=O)OC[C@@H](Cc1c[nH]c2ccccc12)NC(=O)[C@@H](CC=C)CC(=O)N(CCO)Cc1ccccc1
[19]
  AC50: 5.96 µM (active)
Vero
  CC50: 15.5 µM (active)

## Cn1cnc([N+](=O)[O-])c1S(=O)(=O)Nc1ccccc1
[8]
  IC50: 52.8 µM (inactive)
Caspase-6
  AC50: 9.66 µM (active)

## CC1(Cc2ccc(C(F)(F)F)nc2)C(=O)Nc2cc(-c3ccccc3Cl)ccc21 (stereo not drawn)
HEK293 [5]
  EC50: > 59.6 µM (inactive)
HEK293 [7]
  EC50: > 59.6 µM (inactive)

## Cc1cccc(C)c1-n1c(C)cc(/C=N\Nc2ccc([N+](=O)[O-])cn2)c1C
CHO
  IC50: > 49.8 µM (inactive)
Beta Lactamase
  IC50: 4.04 µM (active)

## Cc1noc(C)c1S(=O)(=O)Nc1ccc2c(c1)C(=O)N([C@H](C)CO)C[C@H](C)[C@H](CN(C)C(=O)Nc1ccc(C(F)(F)F)cc1)O2
[18]
  AC50: 4.97 µM (active)

## C[C@H](CO)N1C[C@H](C)[C@H](CN(C)Cc2ccc(C(=O)Nc3ccccc3N)cc2)Oc2c(NS(=O)(=O)c3cccs3)cccc2C1=O
[18]
  AC50: 1.87 µM (active)

## CCCCNc1c(-c2ccc(-c3ccc(OC)cc3)c(OC)c2)nc2ccccn12
Vero
  CC50: > 25 µM (active)
